Test results as given in patent US20220402882A1, “HERBICIDAL COMPOUNDS” (SYNGENTA CROP PROTECTION AG, priority 2019, published 2022).

Assays:
Assay type in all cases: in vivo
Settings in all cases: 125 g/h, evaluated after 13 days
[1] = test system: Ipomoea hederacea (IPOHE); test: Pre-emergence glasshouse herbicide test
Protocol: (§1) Seeds of a variety of test species are sown in standard soil in pots (Lolium perenne (LOLPE), Amaranthus retoflexus (AMARE), Abutilon theophrasti (ABUTH), Setaria faberi (SETFA), Echinochloa crus-galli (ECHCG), Ipomoea hederacea (IPOHE)). After cultivation for one day (pre-emergence) or after 8 days cultivation (post-emergence) under controlled conditions in a glasshouse (at 24/16° C., day/night; 14 hours light; 65% humidity), the plants are sprayed with an aqueous spray solution derived from the formulation of the technical active ingredient in acetone/water (50:50) solution containing 0.5% Tween™ 20 (polyoxyethelyene sorbitan monolaurate, CAS RN 9005-64-5). Compounds are applied at 125 g/h unless otherwise indicated. The test plants are then grown in a glasshouse under controlled conditions in a glasshouse (at 24/16° C., day/night; 14 hours light; 65% humidity) and watered twice daily. After 13 days for pre- and post-emergence, the test is evaluated for the percentage damage caused to the plant. The biological activities are shown in the following table on a five-point scale (5=80-100%; 4=60-79%; 3=40-59%; 2=20-39%; 1=0-19%).

[2] = test system: Echinochloa crus-galli (ECHCG); test: Pre-emergence glasshouse herbicide test
Protocol: as §1

[3] = test system: Amaranthus retoflexus (AMARE); test: Pre-emergence glasshouse herbicide test
Protocol: as §1

[4] = test system: Abutilon theophrasti (ABUTH); test: Pre-emergence glasshouse herbicide test
Protocol: as §1

[5] = test system: Setaria faberi (SETFA); test: Pre-emergence glasshouse herbicide test
Protocol: as §1

[6] = test system: Ipomoea hederacea (IPOHE); test: Post-emergence glasshouse herbicide test
Protocol: as §1

[7] = test system: Echinochloa crus-galli (ECHCG); test: Post-emergence glasshouse herbicide test
Protocol: as §1

[8] = test system: Amaranthus retoflexus (AMARE); test: Post-emergence glasshouse herbicide test
Protocol: as §1

[9] = test system: Abutilon theophrasti (ABUTH); test: Post-emergence glasshouse herbicide test
Protocol: as §1

[10] = test system: Setaria faberi (SETFA); test: Post-emergence glasshouse herbicide test
Protocol: as §1

CCS(=O)(=O)c1c(CC(F)(F)F)ccc(C(=O)Nc2nnnn2C)c1Cl [Compound 1.022]
percentage damage caused to the plant, IPOHE [1]: 5 (5=80-100%)
percentage damage caused to the plant, ECHCG [2]: 5 (5=80-100%)
percentage damage caused to the plant, AMARE [3]: 5 (5=80-100%)
percentage damage caused to the plant, ABUTH [4]: 5 (5=80-100%)
percentage damage caused to the plant, SETFA [5]: 5 (5=80-100%)
percentage damage caused to the plant, IPOHE [6]: 5 (5=80-100%)
percentage damage caused to the plant, ECHCG [7]: 5 (5=80-100%)
percentage damage caused to the plant, AMARE [8]: 4 (4=60-79%)
percentage damage caused to the plant, ABUTH [9]: 5 (5=80-100%)
percentage damage caused to the plant, SETFA [10]: 5 (5=80-100%)

CC[S+]([O-])c1c(OC(F)(F)F)ccc(C(=O)Nc2nnnn2C)c1C (stereo not drawn) [Compound 1.023]
percentage damage caused to the plant, IPOHE [1]: 5 (5=80-100%)
percentage damage caused to the plant, ECHCG [2]: 5 (5=80-100%)
percentage damage caused to the plant, AMARE [3]: 5 (5=80-100%)
percentage damage caused to the plant, ABUTH [4]: 5 (5=80-100%)
percentage damage caused to the plant, SETFA [5]: 5 (5=80-100%)
percentage damage caused to the plant, IPOHE [6]: 5 (5=80-100%)
percentage damage caused to the plant, ECHCG [7]: 5 (5=80-100%)
percentage damage caused to the plant, AMARE [8]: 5 (5=80-100%)
percentage damage caused to the plant, ABUTH [9]: 5 (5=80-100%)
percentage damage caused to the plant, SETFA [10]: 5 (5=80-100%)

CCS(=O)(=O)c1c(CC(F)(F)F)ccc(C(=O)Nc2nnnn2C)c1C [Compound 1.024]
percentage damage caused to the plant, IPOHE [1]: 5 (5=80-100%)
percentage damage caused to the plant, ECHCG [2]: 5 (5=80-100%)
percentage damage caused to the plant, AMARE [3]: 5 (5=80-100%)
percentage damage caused to the plant, ABUTH [4]: 5 (5=80-100%)
percentage damage caused to the plant, SETFA [5]: 5 (5=80-100%)
percentage damage caused to the plant, IPOHE [6]: 5 (5=80-100%)
percentage damage caused to the plant, ECHCG [7]: 5 (5=80-100%)
percentage damage caused to the plant, AMARE [8]: 5 (5=80-100%)
percentage damage caused to the plant, ABUTH [9]: 5 (5=80-100%)
percentage damage caused to the plant, SETFA [10]: 5 (5=80-100%)

CCS(=O)(=O)c1cc(C(=O)Nc2nnnn2C)ccc1OC(F)F [Compound 1.025]
percentage damage caused to the plant, IPOHE [1]: 4 (4=60-79%)
percentage damage caused to the plant, ECHCG [2]: 5 (5=80-100%)
percentage damage caused to the plant, AMARE [3]: 5 (5=80-100%)
percentage damage caused to the plant, ABUTH [4]: 5 (5=80-100%)
percentage damage caused to the plant, SETFA [5]: 5 (5=80-100%)
percentage damage caused to the plant, IPOHE [6]: 5 (5=80-100%)
percentage damage caused to the plant, ECHCG [7]: 5 (5=80-100%)
percentage damage caused to the plant, AMARE [8]: 5 (5=80-100%)
percentage damage caused to the plant, ABUTH [9]: 5 (5=80-100%)
percentage damage caused to the plant, SETFA [10]: 5 (5=80-100%)

CC[S+]([O-])c1c(OC(F)F)ccc(C(=O)Nc2nnnn2C)c1Cl (stereo not drawn) [Compound 1.026]
percentage damage caused to the plant, IPOHE [1]: 5 (5=80-100%)
percentage damage caused to the plant, ECHCG [2]: 5 (5=80-100%)
percentage damage caused to the plant, AMARE [3]: 5 (5=80-100%)
percentage damage caused to the plant, ABUTH [4]: 5 (5=80-100%)
percentage damage caused to the plant, SETFA [5]: 5 (5=80-100%)
percentage damage caused to the plant, IPOHE [6]: 5 (5=80-100%)
percentage damage caused to the plant, ECHCG [7]: 5 (5=80-100%)
percentage damage caused to the plant, AMARE [8]: 5 (5=80-100%)
percentage damage caused to the plant, ABUTH [9]: 5 (5=80-100%)
percentage damage caused to the plant, SETFA [10]: 5 (5=80-100%)

CCSc1c(OC(F)F)ccc(C(=O)Nc2nnnn2C)c1Cl [Compound 1.027]
percentage damage caused to the plant, IPOHE [1]: 3 (3=40-59%)
percentage damage caused to the plant, ECHCG [2]: 5 (5=80-100%)
percentage damage caused to the plant, AMARE [3]: 5 (5=80-100%)
percentage damage caused to the plant, ABUTH [4]: 5 (5=80-100%)
percentage damage caused to the plant, SETFA [5]: 5 (5=80-100%)
percentage damage caused to the plant, IPOHE [6]: 4 (4=60-79%)
percentage damage caused to the plant, ECHCG [7]: 5 (5=80-100%)
percentage damage caused to the plant, AMARE [8]: 5 (5=80-100%)
percentage damage caused to the plant, ABUTH [9]: 5 (5=80-100%)
percentage damage caused to the plant, SETFA [10]: 5 (5=80-100%)
